Experimental data taken from patent US20260137706A1, “METHODS OF TREATING INFLAMMATORY DISEASES” (INTERLINE THERAPEUTICS, INC., priority 2023, published 2026).
pIC50: −log10 of the molar value.

Assays:
[1] = target: T1, GST-RIPK2 fusion protein (human RIPK2, amino acids 1-310) (Homo sapiens, UniProt O43353); experiment: RIPK2 binding competition assay (TR-FRET, Tracer 199 displacement); details: 10 nM Tracer 199, 1 nM GST-RIPK2, read-out: RIPK2 IC50
T1 construct: made in house; host or cells: baculovirus infected Sf9 cells
T1 sequence (O43353 1-310): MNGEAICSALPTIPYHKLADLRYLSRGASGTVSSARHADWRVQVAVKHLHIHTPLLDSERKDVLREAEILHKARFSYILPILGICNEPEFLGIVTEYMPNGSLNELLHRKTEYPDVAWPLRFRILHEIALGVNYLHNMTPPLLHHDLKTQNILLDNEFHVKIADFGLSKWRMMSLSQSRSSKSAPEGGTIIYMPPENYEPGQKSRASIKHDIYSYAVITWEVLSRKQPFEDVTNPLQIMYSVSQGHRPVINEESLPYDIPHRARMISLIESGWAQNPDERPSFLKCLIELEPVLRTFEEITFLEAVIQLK
Summary of the method: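 IC50 derived from the TR-FRET emission ratio (665/620 nm, 337 nm excitation), normalized with no-inhibitor and no-enzyme controls. Incubation 45 min at 22 °C, pH 7.5 Tris buffer, with final 10 nM tracer, 1 nM Sf9-expressed GST-RIPK2 fragment (aa 1-310) and 0.5 nM Tb-labelled anti-GST.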

[2] = target: T2, binding of His-XIAP(BIR2)-avi fusion protein to GST-RIPK2 fusion protein (RIPK2/XIAP) (Homo sapiens, UniProt O43353); experiment: RIPK2-XIAP binding competition PPI assay (TR-FRET); details: RIPK2/XIAP binding competition PPI assay; for Emax: Amax, read-out: PPI Amax bin; for pIC50: read-out: PPI IC50 bin
T2 construct: made in house; host or cells: baculovirus infected Sf9 cells
T2 sequence (O43353 1-310 limits assumed): as the sequence (O43353 1-310) above
Summary of the method: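 Compounds (in DMSO, 100-fold stock) incubated 120 min at 23 °C with 1 nM GST-RIPK2 (aa 1-310) and 25 nM His-XIAP(BIR2 aa 152-231)-avi, plus anti-His-XL665 and anti-GST-Tb, in pH 7.5 Tris buffer. Read-out: 665/520 nm emission ratio. Normalized to no-inhibitor (0%) and 50 nM GSK583 (−100%); Amax binned A–D.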

[3] = test system: NF-κB pathway (SEAP) in THP1-Dual cells; experiment: THP-1 Dual cell SEAP assay (L18-MDP stimulated); assay type: cell-based; details: Homo sapiens, THP1-Dual, read-out: NF-κB THP1 IC50 bin
Summary of the method: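 IC50 values derive from non-linear regression of % inhibition, calculated against DMSO/L18-MDP-treated wells after media-only subtraction. NF-κB SEAP activity was read at OD 620-655 nm (QUANTI-Blue, 2 h, 37 °C) from supernatants of THP1-Dual cells. Cells had been compound-treated 30 min before overnight (20-24 h) stimulation with 10 ng/mL final L18-MDP.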

SMILES	pIC50 [1]	Emax [2] [%]	pIC50 [2]	pIC50 [3]
CCOc1cc2ncc(-c3cc4cc[nH]c4nc3F)n2cc1S(=O)(=O)C(C)C [Example 238, 7-ethoxy-3-(6-fluoro-1H-pyrrolo[2,3-b]pyridin-5-yl)-6-(isopropylsulfonyl) imidazo[1,2-a]pyridine]	8.60 to 9.00	> 80	8.60 to 9.00	6.60 to 7.30
COc1cc2ncc(-c3cc(F)c(OC)c(NC(=O)Cc4cnn(C)c4)c3)n2cc1S(=O)(=O)C(C)(C)C [Example 297, N-(5-(6-(tert-butylsulfonyl)-7-methoxyimidazo[1,2-a]pyridin-3-yl)-3-fluoro-2-methoxyphenyl)-2-(1-methyl-1H-pyrazol-4-yl)acetamide]	8.60 to 9.00	> 80	8.60 to 9.00	6.60 to 7.30
Nc1cc(-c2cnn3ccc(C(F)(F)F)cc23)cc(F)n1 [Example 3, 6-fluoro-4-(5-(trifluoromethyl)pyrazolo[1,5-a]pyridin-3-yl)pyridin-2-amine]	< 7.70	< 30	< 7.70	6.00 to 6.60
CC(C)(C)S(=O)(=O)c1cn2c(-c3cc(F)c(N)nc3F)cnc2cc1-c1cn[nH]c1 [Example 31, 5-(6-(tert-butylsulfonyl)-7-(1H-pyrazol-4-yl)imidazo[1,2-a]pyridin-3-yl)-3,6-difluoropyridin-2-amine]	7.70 to 8.60	> 80	7.70 to 8.60	< 6.00
COc1cc2ncc(-c3cc(F)c(OC)c(NS(=O)(=O)c4cnn(C)c4)c3)n2cc1C1(F)CCNCC1 [Example 276, N-(3-fluoro-5-(6-(4-fluoropiperidin-4-yl)-7-methoxyimidazo[1,2-a]pyridin-3-yl)-2-methoxyphenyl)-1-methyl-1H-pyrazole-4-sulfonamide]	8.60 to 9.00	> 80	> 9.00	6.60 to 7.30
COc1cc2ncc(-c3cc(F)c(N)nc3F)n2cc1S(=O)(=O)C(C)(C)CO [Example 60, 2-((3-(6-amino-2,5-difluoropyridin-3-yl)-7-methoxyimidazo[1,2-a]pyridin-6-yl)sulfonyl)-2-methylpropan-1-ol]	7.70 to 8.60	> 80	7.70 to 8.60	6.00 to 6.60
CC(C)(C)S(=O)(=O)c1cn2c(-c3cc(Cl)c(N)nc3F)cnc2cc1OCCO [Example 13, 2-((3-(6-amino-5-chloro-2-fluoropyridin-3-yl)-6-(tert-butylsulfonyl)imidazo[1,2-a]pyridin-7-yl)oxy)ethan-1-ol]	8.60 to 9.00	> 80	8.60 to 9.00	6.60 to 7.30
COc1cc2ncc(-c3cc(F)c(OC)c4nn(CCO)cc34)n2cc1S(=O)(=O)C(C)(C)C [Example 122, 2-(4-(6-(tert-butylsulfonyl)-7-methoxyimidazo[1,2-a]pyridin-3-yl)-6-fluoro-7-methoxy-2HI-indazol-2-yl)ethan-1-ol]	< 7.70	< 30	< 7.70	< 6.00
COc1cc2ncc(-c3cnc4c(c3)CCCN4)n2cc1S(=O)(=O)C(C)(C)C [Example 85, 6-(6-(tert-butylsulfonyl)-7-methoxyimidazo[1,2-a]pyridin-3-yl)-1,2,3,4-tetrahydro-1,8-naphthyridine]	< 7.70	30 to 55	< 7.70	< 6.00
CC(C)(C)S(=O)(=O)c1cc2c(-c3cc(Cl)c(N)nc3F)cnn2cc1OCC(O)CO (centres unmarked) [Example 247, 3-((3-(6-amino-5-chloro-2-fluoropyridin-3-yl)-5-(tert-butylsulfonyl)pyrazolo [1,5-a]pyridin-6-yl)oxy)propane-1,2-diol]	8.60 to 9.00	> 80	8.60 to 9.00	6.60 to 7.30
COc1cc2ncc(-c3cnc4c(c3)OCCN4)n2cc1S(=O)(=O)C(C)(C)C [Example 84, 7-(6-(tert-butylsulfonyl)-7-methoxyimidazo[1,2-a]pyridin-3-yl)-3,4-dihydro-2H-pyrido[3,2-b][1,4]oxazine]	< 7.70	55 to 80	< 7.70	< 6.00
